Consider 24 compounds from patent publication US9694016B2 (Novartis AG, priority 2013, dated 2017).

In one assay the target is b-Raf (V600E) (Homo sapiens (Human), UniProt P15056, V600E). The settings on record: read-out: b-Raf IC-50; AlphaScreen, 60 min pre-incubation, 3 hours reaction. (In general: In Alpha technology, singlet oxygen from a donor bead excites a nearby acceptor bead.)
Sequence of b-Raf (V600E) (P15056 whole entry V600E): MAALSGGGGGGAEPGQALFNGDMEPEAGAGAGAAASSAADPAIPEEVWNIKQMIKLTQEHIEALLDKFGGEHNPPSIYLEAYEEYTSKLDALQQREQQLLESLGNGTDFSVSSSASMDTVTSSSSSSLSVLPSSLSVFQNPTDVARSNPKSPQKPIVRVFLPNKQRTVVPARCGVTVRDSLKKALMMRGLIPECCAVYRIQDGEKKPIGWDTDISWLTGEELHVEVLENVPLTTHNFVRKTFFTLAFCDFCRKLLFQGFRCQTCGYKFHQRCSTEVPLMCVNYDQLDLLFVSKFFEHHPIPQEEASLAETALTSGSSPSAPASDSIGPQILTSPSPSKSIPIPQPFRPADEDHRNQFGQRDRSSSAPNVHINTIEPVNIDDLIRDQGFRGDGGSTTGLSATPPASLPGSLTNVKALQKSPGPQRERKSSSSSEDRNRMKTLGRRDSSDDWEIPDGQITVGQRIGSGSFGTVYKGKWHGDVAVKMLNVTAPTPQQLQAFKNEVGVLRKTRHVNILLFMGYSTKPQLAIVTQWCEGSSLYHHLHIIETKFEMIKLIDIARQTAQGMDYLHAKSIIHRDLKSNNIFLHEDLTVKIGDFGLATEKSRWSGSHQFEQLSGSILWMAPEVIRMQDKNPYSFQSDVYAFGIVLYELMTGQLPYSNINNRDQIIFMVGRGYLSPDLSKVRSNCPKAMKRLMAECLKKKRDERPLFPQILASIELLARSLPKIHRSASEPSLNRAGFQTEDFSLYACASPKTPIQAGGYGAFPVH
`Cc1ccc(NC(=O)c2cnnc(C(C)(C)C#N)c2)cc1-c1cc(N2CCOCC2)n2nccc2n1` [Example 795, 6-(2-cyanopropan-2-yl)-N-(4-methyl-3-(7-morpholinopyrazolo[1,5-a]pyrimidin-5-yl)phenyl)pyridazine-4-carboxamide]: the IC50 was 1.8 nM.

Consider `CCNc1nc(-c2cc(C(=O)Nc3cccc(C(F)F)c3)ccc2C)cc(N2CCOCC2)n1` [Example 733, N-(3-(difluoromethyl)phenyl)-3-(2-(ethylamino)-6-morpholinopyrimidin-4-yl)-4-methylbenzamide], for which the IC50 was determined as 0.8 nM.

Take `Cc1ccc(NC(=O)c2ccnc(C(F)F)c2)cc1-c1cc(N2CCOCC2)n2nccc2n1` [Example 805, 2-(difluoromethyl)-N-(4-methyl-3-(7-morpholinopyrazolo[1,5-a]pyrimidin-5-yl)phenyl)isonicotinamide]: the IC50 amounted to 0.4 nM.

With `Cc1ccc(NC(=O)c2ccnc(C(F)F)c2)cc1-c1cc(N2CCOCC2)c(OC(C)C)nn1` [Example 593, 2-(difluoromethyl)-N-(3-(6-isopropoxy-5-morpholinopyridazin-3-yl)-4-methylphenyl)isonicotinamide], the IC50 came to 0.6 nM.

In the case of `CCNc1nc(-c2cc(NC(=O)c3cc(C(F)(F)F)c(=O)n(CC)c3)ccc2C)cc(N2CCOCC2)n1` [Example 703, 1-ethyl-N-(3-(2-(ethylamino)-6-morpholinopyrimidin-4-yl)-4-methylphenyl)-6-oxo-5-(trifluoromethyl)-1,6-dihydropyridine-3-carboxamide], the IC50 is 1.3 nM.

As to `Cc1ncc(NC(=O)c2cccc(C(F)F)c2)cc1-c1cc(N2CCOCC2)n(C)c(=O)c1` [Example 506, 3-(difluoromethyl)-N-(1′,2-dimethyl-6′-morpholino-2′-oxo-1′,2′-dihydro-[3,4′-bipyridin]-5-yl)benzamide], the IC50 stood at 1.8 nM.

In the case of `Cc1ncc(NC(=O)c2cc(C(F)(F)F)ccn2)cc1-c1cc(N2CCOCC2)c(OC2CCOCC2)nn1` [Example 629, N-(6-methyl-5-(5-morpholino-6-((tetrahydro-2H-pyran-4-yl)oxy)pyridazin-3-yl)pyridin-3-yl)-4-(trifluoromethyl)picolinamide], the IC50 was 1.2 nM.

As to `Cc1ncc(NC(=O)c2cc(CN(C)C)cc(C(F)(F)F)c2)cc1-c1ccc(C#N)c(N2CCOCC2)c1` [Example 685, N-(5-(4-cyano-3-morpholinophenyl)-6-methylpyridin-3-yl)-3-((dimethylamino)methyl)-5-(trifluoromethyl)benzamide], the IC50 is 21.4 nM.

Take `CCn1c(N2CCOCC2)cc(-c2cc(NC(=O)c3ccnc(C(C)C)c3)ccc2C)cc1=O` [Example 522, N-(3-(1-ethyl-6-morpholino-2-oxo-1,2-dihydropyridin-4-yl)-4-methylphenyl)-2-isopropylisonicotinamide]: the IC50 came to 2.5 nM.

With `Cc1ccc(NC(=O)c2cc(CN(C)C)cc(C(F)(F)F)c2)cc1-c1cc(N2CCOCC2)c(=O)n(C)n1` [Example 661, 3-((dimethylamino)methyl)-N-(4-methyl-3-(1-methyl-5-morpholino-6-oxo-1,6-dihydropyridazin-3-yl)phenyl)-5-(trifluoromethyl)benzamide], the IC50 was determined as 4.3 nM.

The same assay, now with this note: read-out: b-Raf IC-50; AlphaScreen, 60 min pre-incubation, reaction 3 hours at room temperature.
Consider `Cc1ccc(NC(=O)c2ccnc(C(F)(F)F)c2)cc1-c1cc(N2CCOCC2)c(S(C)(=O)=O)nn1` [Example 930], for which the IC50 came to 1.03 nM.

In the case of `Cc1ccc(NC(=O)c2cncc(C(F)(F)F)c2)cc1-c1cc(N2CCOCC2)c(=O)n(C)c1` [Example 904, N-(4-methyl-3-(1-methyl-5-morpholino-6-oxo-1,6-dihydropyridin-3-yl)phenyl)-5-(trifluoromethyl)nicotinamide], the IC50 came out at 2.01 nM.

In the case of `CCn1cc(C(=O)Nc2ccc(C)c(-c3cc(N4CCOCC4)nc(N4CC(O)C4)c3)c2)cc(C(F)(F)F)c1=O` [Example 1061, 1-ethyl-N-(3-(2-(3-hydroxyazetidin-1-yl)-6-morpholinopyridin-4-yl)-4-methylphenyl)-6-oxo-5-(trifluoromethyl)-1,6-dihydropyridine-3-carboxamide], the IC50 was found to be 3.05 nM.

For `Cc1ncc(NC(=O)c2ccnc(C(C)C)c2)cc1-c1cc(N2CCOCC2)c2nccn2c1` [Example 882, 2-isopropyl-N-(6-methyl-5-(8-morpholinoimidazo[1,2-a]pyridin-6-yl)pyridin-3-yl)isonicotinamide], the IC50 worked out at 8.1 nM.

Consider `Cc1ncc(NC(=O)c2ccnc(C(C)(C)F)c2)cc1-c1cc(N2CCOCC2)c(OC(C)C)nn1` [Example 911, 2-(2-fluoropropan-2-yl)-N-(5-(6-isopropoxy-5-morpholinopyridazin-3-yl)-6-methylpyridin-3-yl)isonicotinamide], for which the IC50 came out at 3.58 nM.

As for `Cc1ncc(NC(=O)c2cncc(C(F)(F)F)c2)cc1-c1cnc(OC(C)C)c(N2CCOCC2)c1` [Example 960, N-(6′-isopropoxy-2-methyl-5′-morpholino-[3,3′-bipyridin]-5-yl)-5-(trifluoromethyl)nicotinamide], the IC50 worked out at 2.66 nM.

As to `Cc1ncc(NC(=O)c2cc(C(C)(C)O)ccn2)cc1-c1cnc(OCCO)c(N2CCOCC2)c1` [Example 972, N-(6′-(2-hydroxyethoxy)-2-methyl-5-morpholino-[3,3′-bipyridin]-5-yl)-4-(2-hydroxypropan-2-yl)picolinamide], the IC50 stood at 37 nM.

In the case of `Cc1ccc(NC(=O)c2ccnc(C(C)(C)F)c2)cc1-c1cnc(OC(C)C)c(N2CCOCC2)c1` [Example 946, 2-(2-fluoropropan-2-yl)-N-(3-(6-isopropoxy-5-morpholinopyridin-3-yl)-4-methylphenyl)isonicotinamide], the IC50 is 2.36 nM.

As for `Cc1ncc(NC(=O)c2ccnc(C(F)F)c2)cc1-c1cc(NCCO)nc(N2CCOCC2)c1` [Example 1039, 2-(difluoromethyl)-N-(2′-((2-hydroxyethyl)amino)-2-methyl-6′-morpholino-[3,4′-bipyridin]-5-yl)isonicotinamide], the IC50 turned out to be 5.04 nM.

Still in this assay, the particulars now being: read-out: b-Raf IC-50; Table 2; AlphaScreen, 3 hours reaction.
For the compound `Cc1ncc(NC(=O)c2cccc(C(F)(F)F)c2)cc1-c1cnc(OC2CCCC(O)C2)c(N2CCOCC2)c1` (single isomer, unassigned) [Example 320, N-(6′-((3-hydroxycyclohexyl)oxy)-2-methyl-5′-morpholino-[3,3′-bipyridin]-5-yl)-3-(trifluoromethyl)benzamide], the IC50 worked out at 1.7 nM.

Turning to `Cc1ccc(NC(=O)c2cnnc(C(C)(C)F)c2)cc1-c1cc(N2CCOCC2)c(=O)n(C)c1` [Example 363, 6-(2-fluoropropan-2-yl)-N-(4-methyl-3-(1-methyl-5-morpholino-6-oxo-1,6-dihydropyridin-3-yl)phenyl)pyridazine-4-carboxamide], the IC50 is 3.8 nM.

On to `Cc1ncc(NC(=O)c2ccnc(C(F)(F)F)c2)cc1-c1cncc(N2CCOCC2)c1` [Example 295], for which the IC50 worked out at 3.6 nM.

On to `Cc1ncc(NC(=O)c2cccc(C(F)(F)F)c2)cc1-c1cnc(OCC(F)F)c(N2CCOCC2)c1` [Example 227, N-(6′-(2,2-difluoroethoxy)-2-methyl-5′-morpholino-[3,3′-bipyridin]-5-yl)-3-(trifluoromethyl)benzamide], for which the IC50 amounted to 1.8 nM.

For `Cc1ncc(NC(=O)c2cccc(C(F)(F)F)c2)cc1-c1cnc(OC2COC2)c(N2CCOCC2)c1` [Example 315], the IC50 came to 0.8 nM.
